The values below come from article PMC8746858 (Molecules, 2021).

Converted amounts (≈) assume the structure as drawn. Read-outs that look alike come from different tables or passages of the source.

Data set [1] in a line: Solubility in typical solvents, modified Vogel method. The settings on record: 25 °C; for Solubility in Water (63.1): ET(30) in parentheses.
Source text: For this purpose, dimethyl sulfoxide, ethanol, chloroform, ethyl acetate, diethyl ether, toluene, and n-hexane were used as solvents.
The subject of a further data set is IL-6. As to the kind of experiment: IL-6 ELISA in supernatant of LPS-stimulated HaCaT cells. The class given is cell-based, human. The settings on record: 12 h pretreatment then LPS 12 h. Here is the method:
HaCaT cells were seeded in a 24-well plate at a density of 5 × 10^4 cells/well and maintained in DMEM high glucose with 10% FBS until an 80% confluent monolayer was reached. […] Control experiments with LPS-treated cells only were conducted. Controls with cells treated with neither compounds nor LPS were also performed. After that, the cell culture supernatant was collected, and the IL-6 cytokine was measured using an ELISA kit.
On the technique in general: An ELISA detects its analyte on a solid surface through an enzyme-linked reagent.

The nature of data set [2]: Solubility in water, HPLC of saturated solutions. On the procedure:
Then, the obtained saturated solutions were diluted 100 times and analyzed. […] A mixture of 50% acetonitrile and 50% water was used as the mobile phase. The flow rate was 1 cm^3·min^−1. The column temperature was 30 °C. A Luna® Omega 3 µm Polar C18 100 Å column with dimensions of 150 × 4.6 mm was used. The injection volume for these samples was 50 mm^3. Each measurement was performed in triplicate, and the results were averaged.

Data set [3] deals with fibroblasts (NIH/3T3 cells). As to the kind of experiment: cells. On the procedure: (§1) Finally, control experiments with non-treated cells were performed.
The effect of the compounds on the viability of murine 3T3 fibroblasts was estimated using NRU assay. After the incubation time (24 h) cells, media were removed, then to each well we added 100 µL of medium containing neutral red (50 µg/mL). […] The plates were shaken for 10 min at room temperature. Then, the absorption at 540 nm was measured using a microplate reader (Biosan). The results were calculated for each sample concentration as a percentage of medium control. The values are presented as mean ± standard deviation of three independent experiments.

The test system of data set [4] is human keratinocytes (HaCaT cells). As to the kind of experiment: MTT viability assay. The settings on record: for Viability of HaCaT after 48 h Treatment with 0.4 mM IL or SA: calculated as percentage of medium control, in %; for IC50: HaCaT, 24 h. On the procedure:
as §1
(§2) We applied an assay based on the reduction of methyl thiazol tetrazolium bromide (MTT) to assess the effect of the compounds on the viability of HaCaT cells. […] After that, the cells were lysed with a solution of DMSO:ethanol (1:1 v/v). The absorbance of the reduced formazan dye product was read at 560 nm in a microplate reader (Biosan). The results were calculated for each sample concentration as a percentage of medium control. The values are presented as mean ± standard deviation of three independent experiments.

The conditions of data set [5]: TG, air atmosphere, 10 °C·min^−1.
The next data set in a line: MTT viability assay. The settings on record: human, HaCaT keratinocytes. Here is the method: as §1, §2
(In general: Formazan colour is commonly taken as a measure of viable cells.)

The mark [6] stands for this setting: NIH/3T3, 24 h, neutral red uptake.
Setting [7] is: read-out: IC50 (in mM), NIH/3T3, 24 h, neutral red uptake.

What is called IC50 is the concentration at which inhibition is half-maximal. For orientation: solubility means how much of the substance goes into solution per volume. A higher solubility goes with much dissolved substance. As usually defined, the viability is a per cent measure of how many cells are alive, often set against a control.

As for `CC(C)OC(=O)[C@@H](N)C(C)C.O=C(O)c1ccccc1O` [[ValOiPr][SA], L-valine isopropyl ester salicylate], in data set [1], the “Solubility in Chloroform (39.1)” value is on record as “+ (soluble >100 mg·cm^−3)”, the “Solubility in DMSO (45.1)” value is “+ (soluble >100 mg·cm^−3)”, the “Solubility in Diethyl ether (34.5)” value is “+/− (partially soluble 33–100 mg·cm^−3)” and the “Solubility in Ethanol (51.9)” value was “+ (soluble >100 mg·cm^−3)”. In addition, in data set [1], the “Solubility in Ethyl Acetate (38.1)” value is “+/− (partially soluble 33–100 mg·cm^−3)”, the “Solubility in Toluene (33.9)” value is “+ (soluble >100 mg·cm^−3)”, the “Solubility in n-Hexane (31.0)” value is “− (insoluble < 33 mg·cm^−3)” and the “Solubility in Water (63.1)” value is listed as “+/− (partially soluble 33–100 mg·cm^−3)”. In the data set with IL-6 (10 μM), the “Level of IL-6 in LPS-stimulated HaCaT” value is listed as “no effect or negligible inhibition of the IL-6 production”. The “Solubility in Water at 25 °C” value in data set [2] (g of compound per dm^3) was determined as 18.458 ± 0.018 g·dm^−3. In data set [3] (setting [6]), the IC50 stood at 658 ± 7 µg/mL. In addition, in data set [3] (setting [7]), the IC50 is approximately 2.2 mM. Also, the “Viability of HaCaT after 48 h Treatment with 0.4 mM IL or SA” value (“Viability of HaCaT after 48 h Treatment” below) in data set [4] is 66 ± 2. The same molecule had an IC50 in data set [4] (MTT) of 900 ± 50 µg/mL. Besides, the IC50 in data set [4] (read-out: IC50 (in mM), MTT) is approximately 3.1 mM. In addition, the “Tonset, the onset of the thermal degradation” value (“Tonset, the onset” for short) in data set [5] was determined as 163.1 °C.
For the molecule `O=C(O)c1ccccc1O` [SA, Salicylic acid, reference compound], in data set [1], the “Solubility in Chloroform (39.1)” value was “+/− (partially soluble 33–100 mg·cm^−3)”, the “Solubility in DMSO (45.1)” value was “+ (soluble >100 mg·cm^−3)”, the “Solubility in Diethyl ether (34.5)” value is reported as “+ (soluble >100 mg·cm^−3)” and the “Solubility in Ethanol (51.9)” value was “+ (soluble >100 mg·cm^−3)”. Moreover, in data set [1], the “Solubility in Ethyl Acetate (38.1)” value was “+ (soluble >100 mg·cm^−3)”, the “Solubility in Toluene (33.9)” value is “+/− (partially soluble 33–100 mg·cm^−3)”, the “Solubility in n-Hexane (31.0)” value is on record as “− (insoluble < 33 mg·cm^−3)” and the “Solubility in Water (63.1)” value was “+/− (partially soluble 33–100 mg·cm^−3)”. The “Solubility in Water at 25 °C” value in data set [2] (amount of active compound (SA) per dm^3) turned out to be 3.852 ± 0.004 g SA·dm^−3. In data set [2] (water), the solubility was 3852 ± 4 µg/mL (≈ 27.9 mM). The same molecule displayed an IC50 in data set [3] (Mus musculus, NIH3T3, 24 h) of 300 ± 6 µg/mL. In addition, the IC50 in data set [3] (Mus musculus, NIH3T3, 24 h, read-out: IC50 (in mM)) was approximately 2.2 mM. The midpoint of inhibition in data set [4] (Homo sapiens), the IC50, lay at 200 ± 100 µg/mL. Besides, the IC50 in data set [4] (Homo sapiens, read-out: IC50 (in mM)) was approximately 1.6 mM. The molecule also came in with a viability at 48 h, 0.4 mM in “MTT viability assay” of 71 ± 3%. Further, in data set [5], the “Tonset, the onset” value came out at 171.3 °C.
Turning to `CCCOC(=O)[C@@H](N)Cc1ccccc1.O=C(O)c1ccccc1O` [[PheOPr][SA], L-phenylalanine propyl ester salicylate], in data set [1], the “Solubility in Chloroform (39.1)” value is “+ (soluble >100 mg·cm^−3)”, the “Solubility in DMSO (45.1)” value is given as “+ (soluble >100 mg·cm^−3)”, the “Solubility in Diethyl ether (34.5)” value was “+ (soluble >100 mg·cm^−3)” and the “Solubility in Ethanol (51.9)” value is “+/− (partially soluble 33–100 mg·cm^−3)”. For the same molecule, in data set [1], the “Solubility in Ethyl Acetate (38.1)” value is “+/− (partially soluble 33–100 mg·cm^−3)”, the “Solubility in Toluene (33.9)” value was “− (insoluble < 33 mg·cm^−3)”, the “Solubility in n-Hexane (31.0)” value is given as “− (insoluble < 33 mg·cm^−3)” and the “Solubility in Water (63.1)” value is “− (insoluble < 33 mg·cm^−3)”. In the data set on IL-6 (1 µM), the “Level of IL-6 in LPS-stimulated HaCaT” value is “completely protected from inflammation”. Further, in the data set with IL-6 (10 μM), the “Level of IL-6 in LPS-stimulated HaCaT” value is given as “no effect or negligible inhibition of the IL-6 production”. The “Solubility in Water at 25 °C” value in data set [2] (g of compound per dm^3) turned out to be 1.143 ± 0.001 g·dm^−3. Besides, the IC50 in data set [3] (setting [6]) was 662 ± 9 µg/mL. Also, the IC50 in data set [3] (setting [7]) is approximately 1.9 mM. Further, the “Viability of HaCaT after 48 h Treatment” value in data set [4] is on record as 93 ± 4. In addition, the IC50 in data set [4] (MTT) stood at 650 ± 100 µg/mL. For the same molecule, the IC50 in data set [4] (read-out: IC50 (in mM), MTT) is approximately 1.9 mM. In addition, the “Tonset, the onset” value in data set [5] is 185.0 °C.
Turning to `CCOC(=O)[C@@H](N)C(C)C.O=C(O)c1ccccc1O` [[ValOEt][SA], L-valine ethyl ester salicylate], in data set [1], the “Solubility in Chloroform (39.1)” value is listed as “+ (soluble >100 mg·cm^−3)”, the “Solubility in DMSO (45.1)” value was “+ (soluble >100 mg·cm^−3)”, the “Solubility in Diethyl ether (34.5)” value was “+ (soluble >100 mg·cm^−3)” and the “Solubility in Ethanol (51.9)” value is recorded as “+ (soluble >100 mg·cm^−3)”. For the same molecule, in data set [1], the “Solubility in Ethyl Acetate (38.1)” value was “+ (soluble >100 mg·cm^−3)”, the “Solubility in Toluene (33.9)” value is given as “+ (soluble >100 mg·cm^−3)”, the “Solubility in n-Hexane (31.0)” value is given as “− (insoluble < 33 mg·cm^−3)” and the “Solubility in Water (63.1)” value is given as “+/− (partially soluble 33–100 mg·cm^−3)”. In the data set on IL-6 (the two tested concentrations (1 and 10 µM)), the “Level of IL-6 in LPS-stimulated HaCaT” value is “comparable to those produced by 1 µM SA”. Besides, the “Solubility in Water at 25 °C” value in data set [2] (g of compound per dm^3) stood at 26.070 ± 0.026 g·dm^−3. Besides, in data set [3] (setting [6]), the IC50 came out at 700 ± 8 µg/mL. Further, the IC50 in data set [3] (setting [7]) is approximately 2.5 mM. Further, in data set [4], the “Viability of HaCaT after 48 h Treatment” value is 74 ± 2. In addition, the IC50 in data set [4] (MTT) was determined as 600 ± 10 µg/mL. Also, the IC50 in data set [4] (read-out: IC50 (in mM), MTT) was approximately 2.1 mM. For the same molecule, in data set [5], the “Tonset, the onset” value is 157.6 °C.
